In patent US12139477B2, “Compounds, salts thereof and methods for treatment of diseases” (ACADIA PHARMACEUTICALS INC., priority 2017, dated 2024):

Legend:
Type in all cases: cell-based
5HT2A [1] = biological target: T1, 5HT2A (Homo sapiens, UniProt P28223); assay: Beta-arrestin recruitment assay (Tango technology, antagonist mode); parameters: engineered protease cleavage site followed by tethered transcription factor (C); details: read-out: 5HT2A (pIC50) Beta-arrestin (converted)
From the text: Beta-Arrestin Recruitment Assay:
Detecting GPCR Signaling Using the Tango Technology
GPCR signaling through beta-arrestin was detected by the Tango Technology at Thermofisher. This technology is based upon the interaction of intracellular beta-arrestin proteins and the target receptor. Upon ligand binding to the target receptor, the protease tagged arrestin is stimulated and recruited to the engineered protease site on the C-terminus of the GPCR, which triggers release of the tethered transcription factor. The free transcription factor then enters the nucleus and stimulates the beta-lactamase (bla) activity.
Test compounds are received at 1000× (or greater) of the desired starting concentration in 100% DMSO. The 1000× test compounds are serially diluted (10 point […] increments) in 100% DMSO.
Antagonist Assay Protocol:
An Agonist assay screen (see above) is run to obtain the EC80 concentration of the known activator to add in step 3.
1. 32 μL of cells diluted in Assay Media to appropriate cell density are added to the assay plate. If needed, cells are incubated at 37° C./5% CO2 for 6 or 16-24 hours (depending upon cell line specifics) before compound is added.
2. 40 nL of 1000× compound or known antagonist titration plus 4 μL of Assay Media is added to the cells in the assay plate and incubated for 30 minutes at 37° C./5% CO2 in a humidified incubator.
3. 4 μL of the 10×EC80 concentration of agonist, as determined in an Agonist assay, is added to all wells containing test compound and known inhibitor to bring the final assay volume to 40 μL.
4. 4 μL of Assay Media is added to remaining control wells to bring the volume up to 40 μL.
5. The assay plate is incubated for 5 or 16 hours (depending upon cell line specifics) at 37° C./5% CO2 in a humidified incubator.
6. 8 μL of the Substrate Loading Solution is added to the assay plate.
7. The assay plate is incubated for 2 hours at room temperature, in the dark.
8. The assay plate is read on a fluorescence plate reader (Tecan Safire2) and the data is analyzed.
SelectScreen Cell-Based GPCR Profiling Service uses XLfit from IDBS. The dose response curve is curve fit to model number 205 (sigmoidal dose-response model). Custom logic was built in-house for the data analysis tool to address the different compound characteristics that can be observed with functional assays. Using this logic the relative EC50/IC50 value for each given compound is provided.

hERG channel = biological target: T2, hERG channel (Homo sapiens, UniProt Q12809); assay: hERG assay, whole cell recordings in CHO cells (AVIVA); details: CHO cells stably expressing hERG, pH 7.4
T2 construct: host or cells: CHO cells, stably transfected
Procedure: The most common mechanism for these adverse events is the inhibition of one or more cardiac potassium channels, in particular hERG. This current is important for cardiac myocyte repolarization and is a common target for drugs that prolong the QT interval. Test articles in this study were therefore characterized to determine their ability to inhibit the hERG channel. Ion channel activity was measured at AVIVA Biosciences Corporation (San Diego, CA), using a stably transfected Chinese Hamster Ovary (CHO) cell line expressing the hERG mRNA.
Cells: AVIVA's CHO cell line, which stably expresses hERG channels, was used for the study. Cells were cultured in DMEM/F12 containing 10% FBS, 1% penicillin/streptomycin and 500 μg/ml G418. Before testing, cells were harvested using Accumax (Innovative Cell Technologies).
Solutions: For electrophysiological recordings, the following solutions were used: External Solution: 2 mM CaCl2); 2 mM MgCl2; 4 mM KCl; 150 mM NaCl; 10 mM Glucose; 10 mM HEPES; 305-315 mOsm; pH 7.4 (adjusted with 5M NaOH); Internal Solution: 140 mM KCl; 10 mM MgCl2; 6 mM EGTA; 5 mM HEPES-Na; 5 mM ATP-Mg; 295-305 mOsm; pH 7.25 (adjusted with 1M KOH).
Electrophysiology: Whole cell recordings were performed using PX 7000A (Axon Instruments) with AVIVA's SealChip™ technology. Cells were voltage clamped at a holding potential of −80 mV. The hERG current was then activated by a depolarizing step to −50 mV for 300 ms. This first step at −50 mV was used as a baseline for measuring peak amplitude of the tail current. Next, a voltage step to +20 mV was applied for 5 s to activate the channels. Finally, a step back to −50 mV for 5 s removed activation and the deactivating tail current was recorded.
Test Article Handling and Dilutions: All test articles were prepared from 10 mM DMSO stock solutions provided by Sponsor. Solutions were mixed by sonication for 20 min, followed by vigorous vortexing. Prior to testing, compounds were diluted to test concentrations in glass vials using External Solution. Dilutions were prepared no longer than 20 min prior to use.
Electrophysiology Procedures: After achieving whole cell configuration, cells were monitored for 90 s to assess stability and then washed with External Solution for 66 s. The voltage protocol previously described was then applied to the cells every 12 s throughout the procedure. Only stable cells with recording parameters above threshold (see Quality Control section) were allowed to enter the drug addition procedure. External solution containing 0.1% DMSO (vehicle) was applied to the cells to establish a baseline. […] Test article solutions were added to cells in 4 separate additions. Cells were kept in test solution until effect of the test article reached steady state, to a maximum of 12 min. Next, 1 μM cisapride (positive control) was added. Finally, washout with External Solution was performed until the recovery current reached steady state.
Data Analysis: Data analysis was performed using DataXpress (Axon Instruments), Clampfit (Axon Instruments) and Origin (OriginLab Corporation) software.

5HT2A [2] = biological target: T1, 5HT2A; assay: Receptor Selection and Amplification (R-SAT) functional assay; parameters: expressed in transfected cells; host or cells: NIH3T3 cells, pSI mammalian expression vector; details: NIH3T3 cells; Ki from IC50 by Cheng and Prussoff; read-out: 5-HT2a (pKi) (R-SAT) (converted)
From the text: Receptor Selection and Amplification (R-SAT) Assays. […] The IC50 determined in the RSAT assay was converted into a Ki value using the method of Cheng and Prussoff, Biochem Pharmacol., 1973 Dec. 1; 22(23):3099-108. pKi is the negative of the log(Ki).

T2 sequence (Q12809 whole entry): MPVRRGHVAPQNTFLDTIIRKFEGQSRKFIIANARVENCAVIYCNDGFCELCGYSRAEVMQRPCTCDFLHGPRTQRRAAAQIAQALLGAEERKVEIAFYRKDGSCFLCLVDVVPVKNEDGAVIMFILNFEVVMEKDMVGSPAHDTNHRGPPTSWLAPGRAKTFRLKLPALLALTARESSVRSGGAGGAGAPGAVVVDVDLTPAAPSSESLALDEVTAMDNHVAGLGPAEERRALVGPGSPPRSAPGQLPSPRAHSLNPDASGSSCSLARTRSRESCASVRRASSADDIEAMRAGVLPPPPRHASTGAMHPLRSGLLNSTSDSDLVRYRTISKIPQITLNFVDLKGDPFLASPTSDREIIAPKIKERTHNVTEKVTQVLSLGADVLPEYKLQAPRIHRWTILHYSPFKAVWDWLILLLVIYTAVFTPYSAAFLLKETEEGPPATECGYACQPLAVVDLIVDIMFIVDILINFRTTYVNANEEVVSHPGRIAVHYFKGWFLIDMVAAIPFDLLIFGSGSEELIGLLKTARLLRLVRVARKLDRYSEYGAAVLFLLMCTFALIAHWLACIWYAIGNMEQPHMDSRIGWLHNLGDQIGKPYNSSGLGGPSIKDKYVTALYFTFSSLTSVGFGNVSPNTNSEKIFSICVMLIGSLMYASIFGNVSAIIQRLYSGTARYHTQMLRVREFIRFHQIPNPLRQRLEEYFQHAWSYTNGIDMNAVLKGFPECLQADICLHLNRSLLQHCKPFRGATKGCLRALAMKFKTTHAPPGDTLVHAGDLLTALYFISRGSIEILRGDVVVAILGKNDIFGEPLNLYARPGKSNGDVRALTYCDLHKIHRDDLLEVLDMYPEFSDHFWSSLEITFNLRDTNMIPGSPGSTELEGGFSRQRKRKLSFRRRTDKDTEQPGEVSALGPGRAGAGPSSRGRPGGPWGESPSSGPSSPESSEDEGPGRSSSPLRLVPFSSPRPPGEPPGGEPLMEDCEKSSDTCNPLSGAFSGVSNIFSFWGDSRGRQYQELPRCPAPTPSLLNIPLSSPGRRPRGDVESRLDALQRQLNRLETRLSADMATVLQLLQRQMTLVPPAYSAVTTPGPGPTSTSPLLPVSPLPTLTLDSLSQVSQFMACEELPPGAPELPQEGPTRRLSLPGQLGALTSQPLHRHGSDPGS
T1 sequence (P28223 whole entry): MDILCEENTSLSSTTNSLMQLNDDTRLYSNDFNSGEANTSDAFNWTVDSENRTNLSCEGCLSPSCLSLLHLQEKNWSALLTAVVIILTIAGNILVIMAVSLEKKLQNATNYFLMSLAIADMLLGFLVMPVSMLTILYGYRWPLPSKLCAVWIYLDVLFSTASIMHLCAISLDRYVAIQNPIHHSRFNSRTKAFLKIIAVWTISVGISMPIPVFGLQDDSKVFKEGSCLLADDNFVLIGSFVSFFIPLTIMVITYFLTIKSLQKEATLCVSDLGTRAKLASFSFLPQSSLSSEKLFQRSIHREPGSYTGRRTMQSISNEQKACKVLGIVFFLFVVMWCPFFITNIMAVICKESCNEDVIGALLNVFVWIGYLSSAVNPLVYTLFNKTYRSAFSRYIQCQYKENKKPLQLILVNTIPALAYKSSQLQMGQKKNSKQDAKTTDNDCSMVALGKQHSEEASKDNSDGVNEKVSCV

Question: With Cc1c[nH]c2ccc(CNC(=O)N(Cc3ccc(F)cc3F)C3CCN(C)CC3)cc12 [Example 21] as the molecule, how does the IC50 (5HT2A [1]) read?
Answer: 200 nM

Question: With Cc1cc2cc(CNC(=O)N(Cc3ccc(F)cc3F)C3CCN(C)CC3)ccc2n1C [Example 25] as the molecule, how does the IC50 (5HT2A [1]) read?
Answer: 100 nM

Question: For CN1CCC(N(Cc2ccc(F)cc2F)C(=O)NCc2ccc3ncccc3c2)CC1 [Example 27], which IC50 (5HT2A [1]) is on record?
Answer: 79.4 nM

Question: How did the IC50 (5HT2A [1]) turn out when CN1CCC(N(Cc2ccc(F)cc2F)C(=O)NCc2ccc3c(c2)OC(C)(C)C=C3)CC1 [Example 34] was run?
Answer: 316 nM

Question: How did the IC50 (5HT2A [1]) turn out when CN1CCC(N(Cc2ccc(F)cc2F)C(=O)NCc2ccc3cnn(C)c3c2)CC1 [Example 35] was run?
Answer: 200 nM

Question: Which inhibition at 1 µM (hERG channel) does the source give for CC(C)Oc1ccc(CNC(=O)N(Cc2ccc(Cl)cc2F)C2CCN(C)CC2)cc1 [Example 137, 1-[(4-chloro-2-fluorophenyl)methyl]-1-(1-methylpiperidin-4-yl)-3-{[4-(propan-2-yloxy)phenyl]methyl}urea; Trifluoroacetic Acid] here?
Answer: 37%

Question: And the Ki (5HT2A [2])?
Answer: 3.98 nM

Question: What does the source list for CC(C)COc1ccc(CNC(=O)N(Cc2ccc(Cl)cc2F)C2CCN(C)CC2)cc1 [Example 139, 1-[(4-chloro-2-fluorophenyl)methyl]-1-(1-methylpiperidin-4-yl)-3-{[4-(2-methylpropoxy)phenyl]methyl}urea; Trifluoroacetic Acid]?
Answer: inhibition at 1 µM (hERG channel): 35%; Ki (5HT2A [2]): 3.98 nM

Question: CN1CCC(N(Cc2ccc(F)cc2F)C(=O)NCc2ccc(OCC3CC3)cc2)CC1 [Example 141, 3-{[4-(cyclopropylmethoxy)phenyl]methyl}-1-[(2,4-difluorophenyl)methyl]-1-(1-methylpiperidin-4-yl)urea] was tested. Which inhibition at 1 µM (hERG channel) did it give?
Answer: 42%

Question: And the Ki (5HT2A [2])?
Answer: 0.631 nM

Question: For CC(C)Oc1ccc(CNC(=O)N(Cc2ccc(F)cc2F)C2CCNCC2)cc1 [Example 142, 1-[(2,4-difluorophenyl)methyl]-1-(piperidin-4-yl)-3-{[4-(propan-2-yloxy)phenyl]methyl}urea], which inhibition at 1 µM (hERG channel) is on record?
Answer: 8%

Question: And the Ki (5HT2A [2])?
Answer: 1 nM

Question: Which results are given for CC(C)Oc1ccc(CNC(=O)N(Cc2ccc(F)cc2F)C2CCN(C)CC2)cc1F [Example 143, 1-[(2,4-difluorophenyl)methyl]-3-{[3-fluoro-4-(propan-2-yloxy)phenyl]methyl}-1-(1-methylpiperidin-4-yl)urea; Trifluoroacetic Acid]?
Answer: inhibition at 1 µM (hERG channel): 41%; Ki (5HT2A [2]): 0.501 nM

Question: With CC(C)Oc1ccc(CNC(=O)N(Cc2ccc(F)cc2F)C2CCN(C)CC2)c(F)c1 [Example 144, 1-[(2,4-difluorophenyl)methyl]-3-{[2-fluoro-4-(propan-2-yloxy)phenyl]methyl}-1-(1-methylpiperidin-4-yl)urea; Trifluoroacetic Acid] as the molecule, how does the inhibition at 1 µM (hERG channel) read?
Answer: 37%

Question: What about the Ki (5HT2A [2]) of the same molecule?
Answer: 1 nM

Question: Cc1cc(CNC(=O)N(Cc2ccc(F)cc2F)C2CCN(C)CC2)ccc1OC(C)C [Example 145, 1-[(2,4-difluorophenyl)methyl]-3-{[3-methyl-4-(propan-2-yloxy)phenyl]methyl}-1-(1-methylpiperidin-4-yl)urea; Trifluoroacetic Acid] was tested. Which inhibition at 1 µM (hERG channel) did it give?
Answer: 39%

Question: What about the Ki (5HT2A [2]) of the same molecule?
Answer: 1.58 nM

Question: Which results are given for C#CCOc1ccc(CNC(=O)N(Cc2ccc(F)cc2F)C2CCN(C)CC2)cc1 [Example 148, 1-[(2,4-difluorophenyl)methyl]-1-(1-methylpiperidin-4-yl)-3-{[4-(prop-2-yn-1-yloxy)phenyl]methyl}urea; Trifluoroacetic Acid]?
Answer: inhibition at 1 µM (hERG channel): 33%; Ki (5HT2A [2]): 2 nM

Question: What does the source list for CC(C)(C)Oc1ccc(CNC(=O)N(Cc2ccc(F)cc2F)C2CCNCC2)cc1 [Example 149, 3-{[4-(tert-butoxy)phenyl]methyl}-1-[(2,4-difluorophenyl)methyl]-1-(piperidin-4-yl)urea; Trifluoroacetic Acid]?
Answer: inhibition at 1 µM (hERG channel): 40%; Ki (5HT2A [2]): 1 nM

Question: Which results are given for CN1CCC(N(Cc2ccc(F)cc2F)C(=O)NCc2ccc(OCCCF)cc2)CC1 [Example 151, 3-[(2,4-difluorophenyl)methyl]-1-{[4-(3-fluoropropoxy)phenyl]methyl}-3-(1-methylpiperidin-4-yl)urea; Trifluoroacetic Acid]?
Answer: inhibition at 1 µM (hERG channel): 16%; Ki (5HT2A [2]): 2 nM

Question: How did the inhibition at 1 µM (hERG channel) turn out when CN1CCC(N(Cc2ccc(F)cc2F)C(=O)NCc2ccc(C(C)(F)F)cc2)CC1 [Example 152, 1-{[4-(1,1-difluoroethyl)phenyl]methyl}-3-[(2,4-difluorophenyl)methyl]-3-(1-methylpiperidin-4-yl)urea; Trifluoroacetic Acid] was run?
Answer: 38%

Question: What about the Ki (5HT2A [2]) of the same molecule?
Answer: 2.51 nM

Question: With CN1CCC(N(Cc2ccc(F)cc2F)C(=O)NCc2ccc(OC(CF)CF)cc2)CC1 [Example 153, 3-[(2,4-difluorophenyl)methyl]-1-({4-[(1,3-difluoropropan-2-yl)oxy]phenyl}methyl)-3-(1-methylpiperidin-4-yl)urea; Trifluoroacetic Acid] as the molecule, how does the inhibition at 1 µM (hERG channel) read?
Answer: 29%

Question: What about the Ki (5HT2A [2]) of the same molecule?
Answer: 1.58 nM

Question: Which inhibition at 1 µM (hERG channel) does the source give for CN1CCC(N(Cc2ccc(F)cc2F)C(=O)NCc2ccc(OCC(F)F)cc2)CC1 [Example 154, 3-{[4-(2,2-difluoroethoxy)phenyl]methyl}-1-[(2,4-difluorophenyl)methyl]-1-(1-methylpiperidin-4-yl)urea; Trifluoroacetic Acid] here?
Answer: 23%

Question: What about the Ki (5HT2A [2]) of the same molecule?
Answer: 1.26 nM

Question: How did the inhibition at 1 µM (hERG channel) turn out when CN1CCC(N(Cc2ccc(F)cc2F)C(=O)NCc2ccc3c(c2)C=CC(C)(C)O3)CC1 [Example 155, 1-[(2,4-difluorophenyl)methyl]-3-[(2,2-dimethyl-2H-chromen-6-yl)methyl]-1-(1-methylpiperidin-4-yl)urea; Trifluoroacetic Acid] was run?
Answer: 47%

Question: And the Ki (5HT2A [2])?
Answer: 0.158 nM

Question: What does the source list for O=C(NCc1ccc(OC2CC2)cc1)N(Cc1ccc(F)cc1F)C1CCNCC1 [Example 157, 1-[(4-cyclopropoxyphenyl)methyl]-3-[(2,4-difluorophenyl)methyl]-3-(piperidin-4-yl)urea; Trifluoroacetic Acid]?
Answer: inhibition at 1 µM (hERG channel): 20%; Ki (5HT2A [2]): 0.631 nM

Question: Which results are given for CC1(C)Cc2cc(CNC(=O)N(Cc3ccc(F)cc3F)C3CCNCC3)ccc2O1 [Example 158, 1-[(2,4-difluorophenyl)methyl]-3-[(2,2-dimethyl-2,3-dihydro-1-benzofuran-5-yl)methyl]-1-(piperidin-4-yl)urea; Trifluoroacetic Acid]?
Answer: inhibition at 1 µM (hERG channel): 8%; Ki (5HT2A [2]): 0.794 nM
